This note sets out measurements from ChEMBL document CHEMBL4622952, “Synthesis and biological evaluation of Schizandrin derivatives as tubulin polymerization inhibitors” (Bioorg Med Chem Lett, 2020).

Experiment [1] can be described thus: (§1) Antiproliferative activity against human RKOP3 cells assessed as reduction in cell viability measured after 48 hrs by MTT assay. The format is functional, cell-based. (Tetrazolium assays rely on reduction of a dye to a coloured formazan, in cell work by metabolically active cells.)
For experiment [2], the system named is DU-145. The experiment in a line: Antiproliferative activity against human DU145 cells assessed as reduction in cell viability measured after 48 hrs by MTT assay. The conditions noted are these: for IC50: DU-145, 48 h. The format is functional, cell-based.
The test system of experiment [3] is HeLa. The experiment in a line: Antiproliferative activity against human HeLa cells assessed as reduction in cell viability measured after 48 hrs by MTT assay. Type of experiment: functional, cell-based.
For experiment [4], the system named is HEK293. The experiment in a line: Cytotoxicity against human HEK293 cells assessed as reduction in cell viability measured after 48 hrs by MTT assay. The format is cell-based.
The test system of experiment [5] is DU-145. Description: Induction of apoptosis in human DU145 cells assessed as live cells at 2.54 uM measured after 24 hrs by annexinV-FITC/propidium iodide staining based flow cytometry analysis (reference value: 97.09 %). The format is functional.
In experiment [6] the test system is DU-145. Description: Induction of apoptosis in human DU145 cells assessed as early apoptotic cells at 2.54 uM measured after 24 hrs by annexinV-FITC/propidium iodide staining based flow cytometry analysis (reference value: 2.34 %). The format is functional. In general terms: In flow cytometry, cells or beads pass a laser one at a time.
For experiment [7], the system named is DU-145. Description: Induction of apoptosis in human DU145 cells assessed as late apoptotic cells at 2.54 uM measured after 24 hrs by annexinV-FITC/propidium iodide staining based flow cytometry analysis (reference value: 0.05 %). The format is functional.
Experiment [8] concerns DU-145. The experiment in a line: Induction of apoptosis in human DU145 cells assessed as necrotic cells at 2.54 uM measured after 24 hrs by annexinV-FITC/propidium iodide staining based flow cytometry analysis (reference value: 0.52 %). The format is functional.
Experiment [9] is described as follows: Induction of apoptosis in human RKOP3 cells assessed as live cells at 2 uM measured after 24 hrs by annexinV-FITC/propidium iodide staining based flow cytometry analysis (reference value: 98.19 %). The format is functional.
Experiment [10] can be described thus: Induction of apoptosis in human RKOP3 cells assessed as early apoptotic cells at 2 uM measured after 24 hrs by annexinV-FITC/propidium iodide staining based flow cytometry analysis (reference value: 1.8 %). Type of experiment: functional.
Experiment [11] in a line: Induction of apoptosis in human RKOP3 cells assessed as late apoptotic cells at 2 uM measured after 24 hrs by annexinV-FITC/propidium iodide staining based flow cytometry analysis (reference value: 0.01 %). Type of experiment: functional.
Experiment [12] is described as follows: Induction of apoptosis in human RKOP3 cells assessed as necrotic cells at 2 uM measured after 24 hrs by annexinV-FITC/propidium iodide staining based flow cytometry analysis (reference value: 0 %). Type of experiment: functional.
Experiment [13] has as its target T1, Tubulin (Homo sapiens) (UniProt P68371+Q9H4B7+P0DPH7+P68366+Q13509+Q71U36+P04350+Q3ZCM7+P07437+P68363+Q9BQE3+Q6PEY2+Q13885+Q9BVA1+Q9BUF5). The experiment in a line: Inhibition of tubulin […] in human DU145 cells assessed as increase in soluble fraction of tubulin at […] measured after 24 hrs by Western blot analysis. The format is cell-based. Conditions: DU-145. (In general: A western blot detects proteins with antibodies after separation by electrophoresis.)

Experiment [14] concerns A549. The experiment in a line: Antiproliferative activity against human A549 cells assessed as reduction in cell viability measured after 48 hrs by MTT assay. The format is functional, cell-based. Conditions: for IC50: A549, 48 h.
The species named for experiment [15] is Homo sapiens. The experiment is described as §1. Type of experiment: functional, cell-based.
For experiment [16], the system named is DU-145. Description: Cell cycle arrest in human DU145 cells assessed as accumulation at G0/G1 phase at 5 uM measured after 24 hrs by propidium iodide staining based flow cytometry analysis (reference value: 58.2 %). Type of experiment: functional.
The test system of experiment [17] is DU-145. The experiment in a line: Cell cycle arrest in human DU145 cells assessed as accumulation at G0/G1 phase at 3 uM measured after 24 hrs by propidium iodide staining based flow cytometry analysis (reference value: 58.2 %). The format is functional.
Experiment [18] has as its system DU-145. Description: Cell cycle arrest in human DU145 cells assessed as accumulation at G0/G1 phase at 1.5 uM measured after 24 hrs by propidium iodide staining based flow cytometry analysis (reference value: 58.2 %). Type of experiment: functional.
Experiment [19] concerns DU-145. The experiment in a line: Induction of apoptosis in human DU145 cells assessed as live cells at 1.5 uM measured after 48 hrs by annexinV-FITC/propidium iodide staining based flow cytometry analysis (reference value: 97.09 %). Type of experiment: functional.
For experiment [20], the system named is DU-145. The experiment in a line: Induction of apoptosis in human DU145 cells assessed as early apoptotic cells at 1.5 uM measured after 48 hrs by annexinV-FITC/propidium iodide staining based flow cytometry analysis (reference value: 2.34 %). The format is functional.
The test system of experiment [21] is DU-145. Description: Induction of apoptosis in human DU145 cells assessed as late apoptotic cells at 1.5 uM measured after 48 hrs by annexinV-FITC/propidium iodide staining based flow cytometry analysis (reference value: 0.05 %). Type of experiment: functional.
Experiment [22] deals with DU-145. Description: Induction of apoptosis in human DU145 cells assessed as necrotic cells at 1.5 uM measured after 48 hrs by annexinV-FITC/propidium iodide staining based flow cytometry analysis (reference value: 0.52 %). The format is functional.
Experiment [23] relates to DU-145. Description: Induction of apoptosis in human DU145 cells assessed as live cells at 3.5 uM measured after 48 hrs by annexinV-FITC/propidium iodide staining based flow cytometry analysis (reference value: 97.09 %). Type of experiment: functional.
For experiment [24], the system named is DU-145. The experiment in a line: Induction of apoptosis in human DU145 cells assessed as early apoptotic cells at 3.5 uM measured after 48 hrs by annexinV-FITC/propidium iodide staining based flow cytometry analysis (reference value: 2.34 %). Type of experiment: functional.
Experiment [25] concerns DU-145. Description: Induction of apoptosis in human DU145 cells assessed as late apoptotic cells at 3.5 uM measured after 48 hrs by annexinV-FITC/propidium iodide staining based flow cytometry analysis (reference value: 0.05 %). Type of experiment: functional.
Experiment [26] concerns DU-145. Description: Induction of apoptosis in human DU145 cells assessed as necrotic cells at 3.5 uM measured after 48 hrs by annexinV-FITC/propidium iodide staining based flow cytometry analysis (reference value: 0.52 %). The format is functional.
Experiment [27] has as its system DU-145. Description: Induction of apoptosis in human DU145 cells assessed as live cells at 5 uM measured after 48 hrs by annexinV-FITC/propidium iodide staining based flow cytometry analysis (reference value: 97.09 %). Type of experiment: functional.
Experiment [28] deals with DU-145. Description: Induction of apoptosis in human DU145 cells assessed as early apoptotic cells at 5 uM measured after 48 hrs by annexinV-FITC/propidium iodide staining based flow cytometry analysis (reference value: 2.34 %). The format is functional.
Experiment [29] has as its system DU-145. Description: Induction of apoptosis in human DU145 cells assessed as late apoptotic cells at 5 uM measured after 48 hrs by annexinV-FITC/propidium iodide staining based flow cytometry analysis (reference value: 0.05 %). Type of experiment: functional.
The test system of experiment [30] is DU-145. Description: Induction of apoptosis in human DU145 cells assessed as necrotic cells at 5 uM measured after 48 hrs by annexinV-FITC/propidium iodide staining based flow cytometry analysis (reference value: 0.52 %). Type of experiment: functional.
Experiment [31] addresses T1, Tubulin (Homo sapiens). Description: Inhibition of tubulin polymerization in human HeLa cells assessed as disruption of microtubule network at 10 uM measured after 24 hrs by immunofluorescence assay. The format is cell-based.
[32] abbreviates: Homo sapiens, HEK293, 48 h, read-out: IC50.

Active and inactive are the calls of the source. The calls are words filed in the database; no cut-off is given here.

For orientation: IC50 means the concentration that gives 50% inhibition. With `COc1cccc2c1C(=O)c1c(O)c3c(c(O)c1C2=O)C[C@@](O)(C(=O)CO)C[C@@H]3O[C@H]1C[C@H](N)[C@H](O)[C@H](C)O1` [DOXORUBICIN], the IC50 in experiment [1] is 2.23 µM; in [2], 2.54 µM; in experiment [3], 1.94 µM; in experiment [4] (hek293), “Not Active”. Moreover, the Activity in experiment [5] turned out to be 46.09%; in experiment [6], 46.08%; in [7], 7.83%; in experiment [8] it was 0%; in [9], 60.97%; in [10] it was 37.21%. In addition, the Activity in experiment [11] is on record as 1.77%; in [12] it was 0.05%.

On to `COC(=O)Nc1nc2cc(C(=O)c3cccs3)ccc2[nH]1`, for which the inhibition result in experiment [13] is “Active”.

With `CCCCC(=O)O/N=C1\C=C2C[C@H](C)[C@@]3(C)Cc4cc(OC)c(OC)c(OC)c4C23C(OC)=C1OC` (stereo partly specified), the inhibition result in [14], in experiment [15], in [2] and in experiment [3] was “Dose-dependent effect” throughout. The IC50 in experiment [14] was determined as 6.9 µM; in experiment [1], 14.8 µM; in experiment [2], 22.9 µM; in experiment [3] it was 12.9 µM; in [4] (setting [32]), 112 µM.

In the case of `CCOC(=O)CCC(=O)O/N=C1\C=C2C[C@H](C)[C@@]3(C)Cc4cc(OC)c(OC)c(OC)c4C23C(OC)=C1OC` (stereo partly specified), the inhibition result in [14], in [15], in [2] and in experiment [3] was “Dose-dependent effect” in each case. Besides, the IC50 in experiment [14] is 8.4 µM; in [1], 22.6 µM; in [2] it was 25 µM; in experiment [3] it was 8.37 µM; in experiment [4] (setting [32]), 85.4 µM.

With `CCC(=O)O/N=C1\C=C2C[C@H](C)[C@@]3(C)Cc4cc(OC)c(OC)c(OC)c4C23C(OC)=C1OC` (stereo partly specified), the inhibition entry in experiment [14], in [15], in [2] and in [3] was “Dose-dependent effect” each time. For the same molecule, the IC50 was 6.5 µM in [14]; 60.5 µM in experiment [1]; 3.42 µM in experiment [2]; 45.3 µM in experiment [3]; 65.1 µM in experiment [4] (setting [32]). The Activity in experiment [16] came to 71.07%; in experiment [17] it was 66.4%; in experiment [18], 66.97%; in [19] it was 75.71%; in experiment [20], 23.33%; in [21], 0.96%. Moreover, the Activity in experiment [22] turned out to be 0%; in experiment [23] it was 68.5%; in experiment [24], 27.56%; in [25], 3.87%; in experiment [26], 0.07%; in experiment [27], 68.98%. Besides, the Activity in experiment [28] was 29.44%; in experiment [29] it was 1.54%; in [30] it was 0.04%. Moreover, the inhibition result in experiment [13] and in experiment [31] was “Active” in each case.

Regarding `COC1=C(OC)C23C(=C/C1=N\OC(=O)c1c(Cl)cc(Cl)cc1Cl)C[C@H](C)[C@@]2(C)Cc1cc(OC)c(OC)c(OC)c13` (stereo partly specified), the inhibition result in [14], in [15], in experiment [2] and in [3] was “Dose-dependent effect” each time. The IC50 in experiment [14] came out at 7.4 µM; in experiment [1] it was 40.7 µM; in [2], 37.5 µM; in experiment [3], 50.8 µM; in experiment [4] (setting [32]) it was 79.8 µM.
